According to patent publication US20180050993A1, “NOVEL FLUORINATED DERIVATIVES AS EGFR INHIBITORS USEFUL FOR TREATING CANCERS” (Trillium Therapeutics Inc., priority 2015, published 2018):
Where a name gives a salt, the structure may show the parent alone. Read-outs that look alike come from different tables or passages of the source.

Key:
MALME-3M = assay: NCI screening panel, growth %; assay type: cell-based, human; details: Melanoma
Protocol: (§1) After 24 h, two plates of each cell line are fixed in situ with TCA, to represent a measurement of the cell population for each cell line at the time of drug addition (Tz). Experimental drugs are solubilised in dimethyl sulfoxide at 400-fold the desired final maximum test concentration and stored frozen prior to use. At the time of drug addition, an aliquot of frozen concentrate is thawed and diluted to twice the desired final maximum test concentration with complete medium containing 50 μg/ml gentamicin. Additional four, 10-fold or log serial dilutions are made to provide a total of five drug concentrations plus control. Aliquots of 100 μl of these different drug dilutions are added to the appropriate microtiter wells already containing 100 μl of medium, resulting in the required final drug concentrations.
(§2) Following drug addition, the plates are incubated for an additional 48 h at 37° C., 5% CO2, 95% air, and 100% relative humidity. For adherent cells, the assay is terminated by the addition of cold TCA (trichloroacetic acid). Cells are fixed in situ by the gentle addition of 50 μl of cold 50% (w/v) TCA (final concentration, 10% TCA) and incubated for 60 minutes at 4° C. The supernatant is discarded, and the plates are washed five times with tap water and air dried. Sulforhodamine B (SRB) solution (100 μl) at 0.4% (w/v) in 1% acetic acid is added to each well, and plates are incubated for 10 minutes at room temperature. After staining, unbound dye is removed by washing five times with 1% acetic acid and the plates are air dried. Bound stain is subsequently solubilised with 10 mM trizma base, and the absorbance is read on an automated plate reader at a wavelength of 515 nm. For suspension cells, the methodology is the same except that the assay is terminated by fixing settled cells at the bottom of the wells by gently adding 50 μl of 80% TCA (final concentration, 16% TCA). Using the seven absorbance measurements [time zero, […], control growth, (C), and test growth in the presence of drug at the five concentration levels (Ti)], the percentage growth is calculated at each of the drug concentration levels. Percentage growth inhibition is calculated as: [(Ti−Tz)/(C−Tz)]×100 for concentrations in which Ti>/=Tz and [(Ti−Tz)/Tz]×100 for concentrations in which Ti<Tz.
(§3) Three dose response parameters are calculated for each experimental agent. […] The drug concentration resulting in total growth inhibition (TGI) is calculated from Ti=Tz. […] Values are calculated for each of these three parameters if the level of activity is reached. However, if the effect is not reached or is exceeded, the value for that parameter is expressed as greater or less than the maximum or minimum concentration tested.

HL-60(TB) = assay: NCI screening panel, growth %; assay type: cell-based, human; details: Leukemia
Protocol: as §1, §2, §3

SK-MEL-2 = assay: NCI screening panel, growth %; assay type: cell-based, human; details: Melanoma
Protocol: as §1, §2, §3

SNB-19 = assay: NCI screening panel, growth %; assay type: cell-based, human; details: CNS
Protocol: as §1, §2, §3

NCI-H23 = assay: NCI screening panel, growth %; assay type: cell-based, human; details: NSCLC
Protocol: as §1, §2, §3

MDA-MB-231/ATCC = assay: NCI screening panel, growth %; assay type: cell-based, human; details: Breast
Protocol: as §1, §2, §3

NCI-H522 = assay: NCI screening panel, growth %; assay type: cell-based, human; details: NSCLC
Protocol: as §1, §2, §3

SNB-75 = assay: NCI screening panel, growth %; assay type: cell-based, human; details: CNS
Protocol: as §1, §2, §3

SF-539 = assay: NCI screening panel, growth %; assay type: cell-based, human; details: CNS
Protocol: as §1, §2, §3

SK-MEL-5 = assay: NCI screening panel, growth %; assay type: cell-based, human; details: Melanoma
Protocol: as §1, §2, §3

ACHN = assay: NCI screening panel, growth %; assay type: cell-based, human; details: Renal
Protocol: as §1, §2, §3

SR = assay: NCI screening panel, growth %; assay type: cell-based, human; details: Leukemia
Protocol: as §1, §2, §3

MOLT-4 = assay: NCI screening panel, growth %; assay type: cell-based, human; details: Leukemia
Protocol: as §1, §2, §3

[1] = Brain concentrations after PO administration in rat, peak at 8 hours (Table 5); assay type: in vivo; details: Table 5 (8 hours); for Kp at 8 h: brain/plasma, po, 50 mg/kg
P-gp = target: T1, P-gp (Homo sapiens, UniProt P08183); assay: Evaluation of P-gp efflux in Caco-2 cell monolayers; assay type: in vitro ADME;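 also: Caco-2 monolayers dosed apically or basolaterally with test compound at 5 µM in HBSS with HEPES and glucose, 37 °C, donor and receiver sampled after 120 min, LC/MS peak areas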
T1 construct: host or cells: Caco-2 (C2BBe1)
T1 sequence (P08183 whole entry): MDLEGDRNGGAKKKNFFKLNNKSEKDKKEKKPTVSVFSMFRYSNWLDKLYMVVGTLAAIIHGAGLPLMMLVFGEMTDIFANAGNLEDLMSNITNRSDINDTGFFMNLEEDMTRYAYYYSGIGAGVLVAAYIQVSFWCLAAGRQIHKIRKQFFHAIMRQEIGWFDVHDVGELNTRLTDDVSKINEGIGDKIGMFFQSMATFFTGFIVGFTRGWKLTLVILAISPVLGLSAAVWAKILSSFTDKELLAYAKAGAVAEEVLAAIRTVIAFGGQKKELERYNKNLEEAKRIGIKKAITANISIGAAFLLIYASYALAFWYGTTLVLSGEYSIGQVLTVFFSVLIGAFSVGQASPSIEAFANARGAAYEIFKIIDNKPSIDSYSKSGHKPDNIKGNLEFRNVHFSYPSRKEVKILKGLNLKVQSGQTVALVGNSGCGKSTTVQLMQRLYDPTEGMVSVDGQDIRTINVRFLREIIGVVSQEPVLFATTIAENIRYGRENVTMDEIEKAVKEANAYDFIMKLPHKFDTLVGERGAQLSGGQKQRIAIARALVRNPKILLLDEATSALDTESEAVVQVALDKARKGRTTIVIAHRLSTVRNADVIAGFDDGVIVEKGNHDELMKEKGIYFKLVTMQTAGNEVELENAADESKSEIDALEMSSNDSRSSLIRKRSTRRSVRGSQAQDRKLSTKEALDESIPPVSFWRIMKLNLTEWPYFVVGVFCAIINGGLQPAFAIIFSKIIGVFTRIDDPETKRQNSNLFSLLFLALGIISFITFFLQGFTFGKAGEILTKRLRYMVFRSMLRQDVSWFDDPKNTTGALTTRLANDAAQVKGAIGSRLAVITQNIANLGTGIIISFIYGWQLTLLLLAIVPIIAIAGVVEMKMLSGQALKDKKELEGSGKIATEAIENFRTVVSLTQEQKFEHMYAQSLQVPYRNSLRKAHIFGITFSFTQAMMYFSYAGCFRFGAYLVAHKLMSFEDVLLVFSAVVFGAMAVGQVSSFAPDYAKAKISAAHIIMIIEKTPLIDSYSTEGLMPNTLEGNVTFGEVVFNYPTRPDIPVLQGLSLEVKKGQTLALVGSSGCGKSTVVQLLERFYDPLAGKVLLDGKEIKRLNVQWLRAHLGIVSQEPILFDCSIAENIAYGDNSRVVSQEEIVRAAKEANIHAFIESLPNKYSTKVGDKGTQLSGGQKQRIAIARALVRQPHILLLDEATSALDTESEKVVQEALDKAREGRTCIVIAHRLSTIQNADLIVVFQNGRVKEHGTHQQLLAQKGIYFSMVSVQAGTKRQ

[2] = Sprague-Dawley, brain, PO 50 mg/kg

Fc1ccc(Nc2ncnc3cc(OCCOC(F)F)c(OCCOC(F)F)cc23)c(F)c1Cl [Compound 2D•HCl, N-(3-chloro-2,4-difluoro-phenyl)-6,7-bis[2-(difluoromethoxy)ethoxy]quinazolin-4-amine]
Growth % (MALME-3M): 73.73%
Growth % (HL-60(TB)): 80.36%
Growth % (SK-MEL-2): 79.82%
Growth % (SNB-19): 75.78%
Growth % (NCI-H23): 78.31%
Growth % (MDA-MB-231/ATCC): 65.62%
Growth % (NCI-H522): 24.07%
Growth % (SNB-75): 57.99%
Growth % (SF-539): 73.76%
Growth % (SK-MEL-5): 74.60%
Growth % (ACHN): 17.88%
Growth % (SR): 75.96%
Growth % (MOLT-4): 55.03%
Cmax [1, 2]: 6340 ng/g
Tmax [1, 2]: 8 h
Kp at 8 h ([1]; Sprague-Dawley, read-out: AUCLast Ratio (Brain/Plasma)): 1.92
Kp at 8 h ([1]; Sprague-Dawley, read-out: Cmax Ratio (Brain/Plasma)): 2.07
AUCInf ([1]; brain, PO 50 mg/kg): 101339 ng·h/g
AUClast ([1]; brain, PO 50 mg/kg): 99996 ng·h/g
recovery at 120 min, 5 μM (P-gp; Caco-2, pH 7.4, with none (verapamil 0 μM), Caco-2, Verapamil 0 μM, read-out: Recovery (%) AP-BL): 21.8%
recovery at 120 min, 5 μM (P-gp; Caco-2, pH 7.4, with none (verapamil 0 μM), Caco-2, Verapamil 0 μM, read-out: Recovery (%) BL-AP): 30.4%
recovery at 120 min, 5 μM (P-gp; Caco-2, pH 7.4, with verapamil 100 μM, Caco-2, Verapamil 100 μM, read-out: Recovery (%) AP-BL): 29.7%
recovery at 120 min, 5 μM (P-gp; Caco-2, pH 7.4, with verapamil 100 μM, Caco-2, Verapamil 100 μM, read-out: Recovery (%) BL-AP): 28.9%
Papp A→B at 120 min, 5 μM (P-gp; pH 7.4, Caco-2, Verapamil 0 μM): 4.02 ×10⁻⁶ cm/s
Papp B→A at 120 min, 5 μM (P-gp; pH 7.4, Caco-2, Verapamil 0 μM): 2.33 ×10⁻⁶ cm/s
efflux ratio at 120 min, 5 µM (P-gp; pH 7.4, Caco-2, Verapamil 0 μM): 0.58
